Values quoted from earlier work as cited in US6790849B2, “Methods and compositions using optically pure (-) cetirizine in combination with leukotriene inhibitors or decongestants” (Sepracor Inc., priority 1998, dated 2004).
Where two headings read alike, the source gives them in different places.

How the values were obtained:
LTD4 [1] = conditions: guinea pigs
[2] = system: allergen- or exercise-induced bronchoconstriction; conditions: patients, doses as large as 20 mg
[3] = for efficacy: 373 patients
LTB4 formation = conditions: several species
[4] = system: leukotriene-dependent smooth muscle contractions; conditions: in vitro, guinea pig and human airways
[5] = system: leukotriene (LTH4, LTC4, LTD4, and LTE4) formation
LTD4 [6] = conditions: in vivo
[7] = system: three leukotrienes in conducting airway smooth muscle; conditions: in vitro, laboratory animals and humans
LTD4 [8] = conditions: in vivo; remark: listed apart in the source

## CC(C)(C)c1ccc(C(O)CCCN2CCC(C(O)(c3ccccc3)c3ccccc3)CC2)cc1 (stereo not drawn) [terfenadine]
LTD4 [1]
  increase in airway resistance caused by LTD4: suppressed

## O=C(O)COCCN1CCN(C(c2ccccc2)c2ccc(Cl)cc2)CC1 (racemic) [cetirizine]
[2]
  preventing allergen- or exercise-induced bronchoconstriction: not uniformly effective

## CC(c1cc2ccccc2s1)N(O)C(N)=O (racemic) [zileuton, (±)-1-(1-Benso[b]thien-2-ylethyl)-1-hydroxyurea]
[3]; 400 mg
  efficacy: failed to do so
[3]; 600 mg four times daily
  efficacy: required to provide efficacy
[3]; some patients
  adverse effects reported in some patients: headache, pain, asthenia, dyspepsia, nausea, and myalgia
LTB4 formation
  LTB4 formation ex vivo: inhibitor
[4]
  leukotriene-dependent smooth muscle contractions: inhibits
[5]
  leukotriene (LTH4, LTC4, LTD4, and LTE4) formation in vitro: inhibit

## COc1cc(C(=O)NS(=O)(=O)c2ccccc2C)ccc1Cc1cn(C)c2ccc(NC(=O)OC3CCCC3)cc12 [zafirlukast, 4-(5-cyclopentyloxy-carbonylamino-1-methyl-indol-8-ylmethyl)-3-methoxy-N-o-tolylsulfonylbenzamide]
LTD4 [6]
  intradermal LTD4-induced increases in cutaneous vascular permeability: prevented
[7]
  contractile activity of three leukotrienes in conducting airway smooth muscle: antagonized
other
  adverse effects reported in some patients: headache, infection, nausea, diarrhea, pain, asthenia, abdominal pain, dizziness, myalgia, fever, vomiting, SGPT elevation, and dyspepsia
LTD4 [8]
  inhaled LTD4-induced influx of eosinophils into animal lungs: inhibited
